Assay results reported in US12377152B2, “Compounds for degrading alpha-synuclein aggregates and uses thereof” (APRINOIA THERAPEUTICS LIMITED, priority 2019, dated 2025).

Target: α-synuclein aggregates (Homo sapiens (Human), UniProt P37840)
Experiment: ReNcell VM α-synuclein aggregation assay
Format: cell-based
Details: for DC50: ReNcell VM cells, read-out: Activity (DC50, concentration at which 50% of α-synuclein aggregates has been degraded)
Description: The ReNcell VM α-synuclein aggregation assay was conducted at Charles River Laboratories (CRL). ReNcell VM is an immortalized human neural progenitor cell line derived from the ventral mesencephalon region of the brain. ReNcell VM cells were selected as in vitro cellular model for the α-synuclein aggregation assay, based on their growth features, differentiation potential into terminally differentiated neurons and amenability to adenoviral transduction. Aggregated human wild type α-synuclein was overexpressed through adenoviral delivery. Aggregated α-synuclein was detected with the aggregate-selective anti-α-synuclein antibody MJFR14 using immunocytochemistry; total α-synuclein levels were detected with Syn205 (α/β-synuclein-specific antibody).
The ReNcell VM α-synuclein aggregation assay was applied for compound screening to identify compounds capable of degrading α-synuclein aggregates. […] Immunoreactivity toward aggregated (MJFR14) and total α-synuclein (Syn205) was quantified using high content-based segmentation of immunoactive areas in immunocytochemical images (performed with the IN Cell 2200 (GE Healthcare)), followed by quantification of immunofluorescent intensity (performed by CRL's developed algorithm using IN Cell Developer Toolbox software).
Percentage effect (PE): Inhibition in comparison to BLANK (0.1% DMSO).
PE=100−(signal of compound/average signal BLANK)×100
Compound-induced cytotoxicity (% remaining cells)
% remaining cells=(nuclei count of compound/average nuclei count of BLANK)×100

[1] = 24 hour treatment, differentiated ReNcell VM cells

Row | Structure (SMILES) | DC50 [µM] | inhibition of MJFR14 immunoreactivity [1] | inhibition of MJFR14 immunoreactivity (6-day treatment, immunocytochemical images)
1 | CN(C)c1ccc(-c2ccc(-c3nc4ccc(NCCCOCCCOc5ccc6c(c5)CN(C5CCC(=O)NC5=O)C6=O)cc4s3)c(C(F)(F)F)c2)cn1 (stereo not shown) [Compound 123374] | > 10 | – | –
2 | COc1cc(-c2ccc(N(C)C)nc2)ccc1-c1nc2ccc(NCCOCCOc3ccc4c(c3)CN(C3CCC(=O)NC3=O)C4=O)cc2s1 (stereo not shown) [Compound 129071] | > 10 | – | –
3 | COc1ccc2nc(-c3ccc(-c4ccnc(NCCOCCOc5ccc6c(c5)C(=O)N(C5CCC(=O)NC5=O)C6=O)c4)cc3)cn2c1 (stereo not shown) [Compound 129975] | > 10 | – | –
4 | COc1ccc2nc(-c3ccc(-c4ccnc(NC(=O)CCCCOc5ccc6c(c5)CN(C5CCC(=O)NC5=O)C6=O)c4)cc3)cn2c1 (stereo not shown) [Compound 130177] | > 10 | – | –
5 | CN(C)c1ccc(-c2ccc(-c3nc4ccc(NC(=O)CCOCCOc5ccc6c(c5)CN(C5CCC(=O)NC5=O)C6=O)cc4s3)c(C(F)(F)F)c2)cn1 (stereo not shown) [Compound 132560] | > 10 | – | –
6 | CN1C(=O)CCC(N2Cc3cc(OCCOCCNc4ccc5nc(-c6ccc(-c7ccc(N(C)C)nc7)cc6C(F)(F)F)sc5c4)ccc3C2=O)C1=O (stereo not shown) [Compound 133065] | > 10 | – | –
7 | O=C1CCC(N2Cc3cc(OCCCC(=O)Nc4cc(-c5ccc(-c6nc7ccc(F)cc7s6)cc5)ccn4)ccc3C2=O)C(=O)N1 (stereo not shown) [Compound 133678] | > 10 | – | –
8 | O=C1CCC(N2Cc3cc(OCCOCCNc4cc(-c5ccc(-c6cn7ccccc7n6)cc5)ccn4)ccc3C2=O)C(=O)N1 (stereo not shown) [Compound 137955] | > 10 | – | –
9 | CN(C)c1ccc(-c2ccc(-c3nc4ccc(NC(=O)CCOCCOCCOc5ccc6c(c5)CN(C5CCC(=O)NC5=O)C6=O)cc4s3)c(C(F)(F)F)c2)cn1 (stereo not shown) [Compound 138266] | > 10 | – | –
10 | COc1ccc2nc(-c3ccc(-c4ccnc(NC(=O)CCCOc5ccc6c(c5)CN(C5CCC(=O)NC5=O)C6=O)c4)cc3)sc2c1 (stereo not shown) [Compound 138876] | 0.9 to 10 | – | –
11 | CN(C)c1ccc(-c2ccc(-c3nc4ccc(NCCOCCOCCOCCOCCOCCOc5ccc6c(c5)C(=O)N(C5CCC(=O)NC5=O)C6=O)cc4s3)cc2)cn1 (stereo not shown) [Compound 159985, 2-[2,6-bis(oxo)piperidin-3-yl]-5-[2-[2-[2-[2-[2-[2-[[2-[4-[6-(dimethylamino)-pyridin-3-yl]phenyl]-1,3-benzothiazol-6-yl]amino]ethoxy]ethoxy]ethoxy]ethoxy]ethoxy]-ethoxy]isoindole-1,3-dione] | > 10 | – | –
12 | CN(C)c1ccc(-c2ccc(-c3nc4ccc(NCCOCCOc5ccc6c(c5)C(=O)N(C5CCC(=O)NC5=O)C6=O)cc4s3)cc2)cn1 (stereo not shown) [Compound 160219, 2-[2,6-bis(oxo)piperidin-3-yl]-5-[2-[2-[[2-[4-[6-(dimethylamino)pyridin-3-yl]phenyl]-1,3-benzothiazol-6-yl]amino]ethoxy]ethoxy]isoindole-1,3-dione] | > 10 | – | –
13 | CN(C)c1ccc(-c2ccc(-c3nc4ccc(NCCOCCOCCOCCOCCOCCOc5ccc6c(c5)CN(C5CCC(=O)NC5=O)C6=O)cc4s3)cc2)cn1 (stereo not shown) [Compound 160273, 3-[6-[2-[2-[2-[2-[2-[2-[[2-[4-[6-(dimethylamino)pyridin-3-yl]phenyl]-1,3-benzothiazol-6-yl]amino]ethoxy]-ethoxy]ethoxy]ethoxy]ethoxy]ethoxy]-3-oxo-1H-isoindol-2-yl]piperidine-2,6-dione] | 0.01 to 0.9 | – | –
14 | CN(C)c1ccc(-c2ccc(-c3nc4ccc(NCCOCCOc5ccc6c(c5)CN(C5CCC(=O)NC5=O)C6=O)cc4s3)cc2)cn1 (stereo not shown) [Compound 160313, 3-[6-[2-[2-[[2-[4-[6-(dimethylamino)pyridin-3-yl]phenyl]-1,3-benzothiazol-6-yl]amino]ethoxy]ethoxy]-3-oxo-1H-isoindol-2-yl]piperidine-2,6-dione] | > 10 | – | –
15 | CN(C)c1ccc2nc(-c3ccc(-c4ccc(NCCOCCN5C(=O)CCC(N6Cc7cc(O)ccc7C6=O)C5=O)nc4)cc3)sc2c1 (stereo not shown) [Compound 160624, 1-(2-(2-((5-(4-(6-(dimethylamino)benzo[d]thiazol-2-yl)phenyl)pyridin-2-yl)amino)ethoxy)ethyl)-3-(5-hydroxy-1-oxoisoindolin-2-yl)piperidine-2,6-dione] | > 10 | – | –
16 | CN(C)c1ccc(-c2ccc(-c3nc4ccc(NCCCCCOc5ccc6c(c5)C(=O)N(C5CCC(=O)NC5=O)C6=O)cc4s3)cc2)cn1 (stereo not shown) [Compound 161103, 2-[2,6-bis(oxo)piperidin-3-yl]-5-[5-[[2-[4-[6-(dimethylamino)-pyridin-3-yl]phenyl]-1,3-benzothiazol-6-yl]amino]pentoxy]isoindole-1,3-dione] | > 10 | – | –

The next lines start with the values.

Row | DC50 [µM] | inhibition of MJFR14 immunoreactivity [1] | inhibition of MJFR14 immunoreactivity (6-day treatment, immunocytochemical images) | Structure (SMILES)
17 | > 10 | – | – | Cc1ncsc1-c1ccc(CNC(=O)[C@@H]2C[C@@H](O)CN2C(=O)[C@@H](NC(=O)COCCOCCOCCOCCOCCNc2ccc3nc(-c4ccc(-c5ccc(N(C)C)nc5)cc4)sc3c2)C(C)(C)C)cc1 (racemic) [Compound 161247, rac-(2R,4S)—N-[[4-(4-methyl-1,3-thiazol-5-yl)phenyl]methyl]-4-hydroxy-1-[rac-(2R)-2-[2-[2-[2-[2-[2-[2-[[2-[4-[6-(dimethylamino)pyridin-3-yl]phenyl]-1,3-benzothiazol-6-yl]-amino]ethoxy]ethoxy]ethoxy]ethoxy]ethoxy]ethanoylamino]-3,3-dimethyl-butanoyl]pyrrolidine-2-carboxamide]
18 | > 10 | – | – | Cc1ncsc1-c1ccc(CNC(=O)[C@@H]2C[C@@H](O)CN2C(=O)[C@@H](NC(=O)COCCOCCOCCOCCOCCNc2ccc(-c3ccc(-c4nc5ccc(N(C)C)cc5s4)cc3)cn2)C(C)(C)C)cc1 (racemic) [Compound 161598, rac-(2R,4S)—N-[[4-(4-methyl-1,3-thiazol-5-yl)phenyl]methyl]-4-oxidanyl-1-[rac-(2R)-2-[2-[2-[2-[2-[2-[2-[[5-[4-[6-(dimethylamino)-1,3-benzothiazol-2-yl]phenyl]pyridin-2-yl]amino]ethoxy]ethoxy]ethoxy]ethoxy]ethoxy]ethanoylamino]-3,3-dimethyl-butanoyl]pyrrolidine-2-carboxamide]
19 | > 10 | – | – | CN(C)c1ccc(-c2ccc(-c3cn4cc(OCCOCCOc5ccc6c(c5)C(=O)N(C5CCC(=O)NC5=O)C6=O)ccc4n3)cc2)c(F)n1 (stereo not shown) [Compound 161111, 2-[2,6-bis(oxo)piperidin-3-yl]-5-[2-[2-[2-[4-[6-(dimethylamino)-2-fluoro-pyridin-3-yl]phenyl]imidazo[1,2-a]pyridin-6-yl]oxyethoxy]ethoxy]isoindole-1,3-dione]
20 | > 10 | – | – | CN(C)c1ccc2nc(-c3ccc(-c4ccc(NCCOCCOc5ccc6c(c5)C(=O)N(C5CCC(=O)NC5=O)C6=O)nc4)cc3)sc2c1 (stereo not shown) [Compound 161177, 2-[2,6-bis(oxo)piperidin-3-yl]-5-[2-[2-[[5-[4-[6-(dimethylamino)-1,3-benzothiazol-2-yl]phenyl]pyridin-2-yl]amino]ethoxy]ethoxy]isoindole-1,3-dione]
21 | 0.01 to 0.9 | concentration-dependent inhibition | – | COc1ccc2nc(-c3ccc(-c4ccnc(NCCOCCOc5ccc6c(c5)CN(C5CCC(=O)NC5=O)C6=O)c4)cc3)cn2c1 (stereo not shown) [Compound 162640, 3-[6-[2-[2-[[4-[4-(6-methoxyimidazo[1,2-a]pyridin-2-yl)phenyl]pyridin-2-yl]amino]ethoxy]ethoxy]-3-oxidanylidene-1H-isoindol-2-yl]piperidine-2,6-dione]
22 | > 10 | – | – | CN(C)c1ccc(-c2ccc(-c3nc4ccc(NCCOCCN5C(=O)CCC(N6Cc7c(N)cccc7C6=O)C5=O)cc4s3)cc2)cn1 (stereo not shown) [Compound 162641, 3-(7-azanyl-3-oxidanylidene-1H-isoindol-2-yl)-1-[2-[2-[[2-[4-[6-(dimethylamino)pyridin-3-yl]phenyl]-1,3-benzothiazol-6-yl]amino]ethoxy]ethyl]piperidine-2,6-dione]
23 | 0.01 to 0.9 | – | – | CN(C)c1ccc(-c2ccc(-c3nc4ccc(OCCOCCOc5ccc6c(c5)CN(C5CCC(=O)NC5=O)C6=O)cc4o3)cc2)cn1 (stereo not shown) [Compound 163365]
24 | > 10 | – | – | Cc1ncsc1-c1ccc(CNC(=O)[C@@H]2C[C@@H](O)CN2C(=O)[C@@H](NC(=O)COCCOCCOc2ccc3nc(-c4ccc(-c5ccc(N(C)C)nc5)cc4C(F)(F)F)sc3c2)C(C)(C)C)cc1 [Compound 165554]
25 | > 10 | – | – | Cc1ncsc1-c1ccc(CNC(=O)[C@@H]2C[C@@H](O)CN2C(=O)C(NC(=O)COCCOCCNc2cc(-c3ccc(-c4nc5ccc(F)cc5s4)cc3)ccn2)C(C)(C)C)cc1 (stereo partly shown) [Compound 165810]
26 | > 10 | – | – | O=C1CCC(N2Cc3cc(OCCOCCNc4cc(-c5ccc(-c6cn7cc(F)ccc7n6)cc5)ccn4)ccc3C2=O)C(=O)N1 (stereo not shown) [Compound 165824]
27 | > 10 | – | – | CN(C)c1ccc2nc(-c3ccc(-c4ccnc(NCCOCCOc5ccc6c(c5)CN(C5CCC(=O)NC5=O)C6=O)c4)cc3)sc2c1 (stereo not shown) [Compound 165950]
28 | > 10 | – | – | O=C1CCC(N2C(=O)c3ccc(OCCOCCNc4cc(-c5ccc(-c6nc7ccc(F)cc7s6)cc5)ccn4)cc3C2=O)C(=O)N1 (stereo not shown) [Compound 165952]
29 | > 10 | – | – | O=C1CCC(N2Cc3cc(OCCOCCNc4ccc(-c5ccc(-c6cc7ccncc7[nH]6)cc5)cn4)ccc3C2=O)C(=O)N1 (stereo not shown) [Compound 165954]
30 | 0.9 to 10 | concentration-dependent inhibition | clear inhibition | CN(C)c1ccc(-c2ccc(-c3nc4ccc(NCCCNC(=O)COc5ccc6c(c5)CN(C5CCC(=O)NC5=O)C6=O)cc4s3)c(C(F)(F)F)c2)cn1 (stereo not shown) [Compound 166362]
31 | 0.9 to 10 | – | – | CN(C)c1ccc(-c2ccc(-c3cn4cc(OCCOCCN5C(=O)CCC(N6C(=O)c7ccc(O)cc7C6=O)C5=O)ccc4n3)cc2)c(F)n1 (stereo not shown) [Compound 170350]
